“And” between values parts separate entries of the source, which are not always exact repeats. Equal entries are not always repeated.
What was measured:
[1] = biological target: Keap1 (Homo sapiens, UniProt Q14145); assay: Microscale thermophoresis (MST)
Procedure: Keap1 was labelled using the Protein Labelling Kit RED-NHS 2nd Generation (NanoTemper, München, Germany). Keap1 was diluted to 2 μM in RED-NHS Labelling Buffer. 10 μg of RED-NHS 2nd Generation labelling dye was freshly dissolved in 25 μL of DMSO to yield a concentration of 600 μM, then further diluted in RED-NHS Labelling Buffer to 300 μM. A volume of 20 μL of the 300 μM labelling dye was thoroughly mixed with 180 μL of 2 μM Keap1 and incubated at rt in a dark environment for 3 h. […] The sample was transferred to the centre of the resin bed in the B-column. 550 μL of Keap1 MST buffer was pipetted into the B-column and allowed to enter completely, followed by elution of the sample with 450 μL of Keap1 MST buffer and the flow-through was collected into a 1.5 mL Eppendorf tube. The collected sample was centrifuged at 15,000×g for 10 min at 4 °C to remove aggregates. Protein concentration in the collected sample was determined using the NanoDrop spectrophotometer. The sample was then tested in MST pre-test to evaluate the labelling quality.
Labelled Keap1 was diluted to 20 nM in Keap1 MST buffer prior to the reaction setup. […] An equal volume of 20 nM Keap1 was thoroughly mixed with each diluted sample and incubated for 30 min at rt. […] An equal volume of 2 nM Keap1 was mixed with each diluted sample and incubated at rt for 30 min. Incubated samples were loaded into Monolith NT.115 standard capillaries and measured using the Monolith NT.115^Pico instrument in triplicate. Parameters and measurements were set and controlled by the MO.Control software and collected datasets were analysed using the MO.Affinity Analysis software.

[2] = system: NQO1; assay: NQO1 induction assay in Hepa1c1c7 cells; type: cell-based, mouse
Procedure: The method using Hepa1c1c7 cells has been described previously. Briefly, cells were seeded into 96-well plates (2 × 10^4 cells/200 μL per well) then incubated overnight at 37 °C. The cells were treated with compound (10 μM final concentration) or vehicle (final DMSO concentration 0.1 % DMSO) and incubated for a further 24 h or 48 h. The culture medium was aspirated and the cells treated with lysis buffer (50 μL per well, 0.1 % Tween 20 in 2 mM EDTA (pH 7.5)) then agitated for 15 min. Enzyme reaction mixture was added to each well (200 μL of 25 mM Tris buffer (pH 7.5) containing BSA (0.067 %), Tween20 (0.01 %), FAD (5 μM), G6P (1 mM), NADP (30 μM), G6P dehydrogenase (40 units), MTT (0.03 %), menadione (50 μM)) for 5 min then stop solution was applied (40 μL of 10 % SDS, final concentration 1.5 % SDS). Following brief agitation of the plate, the absorbance at 595 nm was measured. The background optical density was measured from wells containing tissue culture medium, lysis buffer, enzyme and stop solutions in the absence of Hepa1c1c7 cells. The change in background-corrected NQO1 activity (change in optical density) relative to the control was determined for each compound.

[3] = system: Nrf2; assay: Immunoblotting of Nrf2 and HO-1 in Hepa1c1c7 cells; type: cell-based, mouse; settings: 6-h incubation, 10 μM or 50 μM
Procedure: Hepa1c1c7 cells (5 × 10^5 cells/well, n = 3) were seeded on six-well plates, and on the next day were treated with compound 25 (10 μM or 50 μM) or vehicle (0.1 % DMSO) for 6 h. Cells were washed twice in PBS, and lysed in 200 μL of SDS lysis buffer containing 2 % SDS, 62.5 mM Tris-HCl pH 6.8 and 10 % glycerol. The cell lysates were boiled for 3 min, sonicated for 25 s (25 %, 4 s on, 1 s off), supplemented with DTT up to 0.1 M and Bromophenol Blue, and snap-frozen. The lysates were thawed, and 20 μg of total protein was separated on a pre-cast NuPage gel under MOPS buffer, transferred onto nitrocellulose membrane and blotted with anti-Nrf2 (Cell Signaling Technology, clone D1Z9C, 1:1000 dilution), anti-HO1 (Abcam, ab13243, 1:2000 dilution) or anti-alpha tubulin (Abcam, clone EP1332Y, 1:5000 dilution) in 5 % milk in PBS with 0.1 % Tween, followed by appropriate secondary antibodies (LiCor BioSciences, 1:15000 dilutuon) and scanned using Odyssey CLx Imaging System.

[4] = EXSY NMR of cis/trans rotamer exchange; type: physicochemical
Text: A series of pseudo-3D EXSY spectra were then acquired for compound 25 in D2O at temperatures of 280, 290, 300, 310 and 320 K (700 MHz, pulse sequence adapted from noesygpphpr and available on request, 1 s recycle delay, 13 mixing times from 5 to 1000 ms, acquisition times of 367 ms and 52 ms and spectra widths of 16 ppm and 3.5 ppm for direct and indirect dimensions respectively). Spectra were processed with linear prediction and cosine-squared window functions. For each temperature, methoxy singlet resonances were selected for analysis, and the intensities of the diagonal ( IAA and IBB ) and cross peaks ( IAB and IBA ) were fitted to Eq. (1) as a function of the mixing time, T, to determine the exchange rates kAB and kBA [41]. The ‘A’ state was defined to be the more shielded signal. Reported uncertainties were obtained from the non-linear fitting procedure.(1) (IAAIABIBAIBB)(T)=exp[(−R1,A−kABkBAkAB−R1,B−kBA)T]·(IA000IB0)
Exchange rates kAB and kBA were used to determine the relative populations pA=kBA/kAB+kBA and pB=kAB/kAB+kBA and were fitted to van't Hoff and Eyring equations (with unit transmission coefficient) to estimate the enthalpy and entropy changes and enthalpy and entropy of activation.

[5] = biological target: T1, Keap1 Kelch domain (Homo sapiens, UniProt Q14145); assay: Fluorescence polarisation (FP) competition assay; type: binding
T1 construct: made in house
T1 sequence (Q14145 322-609): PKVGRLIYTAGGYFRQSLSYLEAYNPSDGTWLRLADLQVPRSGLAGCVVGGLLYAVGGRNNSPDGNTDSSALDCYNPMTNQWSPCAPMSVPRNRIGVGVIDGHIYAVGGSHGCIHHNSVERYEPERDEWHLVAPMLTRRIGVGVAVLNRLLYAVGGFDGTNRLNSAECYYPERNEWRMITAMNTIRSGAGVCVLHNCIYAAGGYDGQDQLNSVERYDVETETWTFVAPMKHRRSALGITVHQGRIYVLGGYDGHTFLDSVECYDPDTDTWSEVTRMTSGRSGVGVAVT
Procedure: The FP assays were carried out according to previously described methods [[23],[31], [32], [33], [34]]. […] Following incubation under slow agitation (30 min at rt in the absence of light), the plates were transferred to a PHERAstar microplate reader and the FP was recorded. All measurements were recorded in triplicate. The data were normalised to the control and then fitted to a standard four-parameter logistic function using the Origin Pro software.

[6] = system: Keap1-mCherry; assay: Keap1-Glow Cellular Thermal Shift Assay (CETSA), U2OS cell lysates; type: cell-based; settings: 10 μM, 1 h at 37 °C
Procedure: U2OS FRT/TO cells with doxycycline-inducible expression of Keap1-mCherry or mCherry were treated with 0.5 μg/mL of doxycycline for 72–96 h to induce the expression of the fluorescent proteins. Lysates of U2OS cells with doxycycline-inducible expression of Keap1-mCherry or mCherry were prepared by lysing in DPBS with EDTA-free protease inhibitor cocktail (PIC) using at least 22 strokes of the Dounce homogenizer. The lysates were cleared by centrifugation at 9600×g for 5 min at 22 °C and incubated with 10 μM compound 25 or vehicle (0.4 % DMSO) for 1 h at 37 °C [46]. The lysates were then heated for 3 min at the indicated range of temperatures (39 °C–72 °C, with 3 °C increments) using a thermal cycler, and the aggregated material was removed by a high-speed centrifugation at 17,000×g at 4 °C for 40 min or 15,000×g at 4 °C for 1 h. The soluble fractions were transferred to 96-well white opaque plates, and the fluorescence (580 nm excitation wavelength (20 nm excitation bandwidth), 635 nm emission wavelength (35 nm emission bandwidth)) was measured using a plate reader (TECAN Spark 10 M).

Keap1, sequence (Q14145 322-609): as above

- Kd ([1]; 1 nM Keap1): 2.1 ± 0.5 nM
- Kd ([1]; 10 nM Keap1): 24.3 ± 4.7 nM
- ΔHAB ([4]; D2O PBS buffer, pH* ~7.4, EXSY): 6.0 ± 1.3 kJ/mol
- ΔH^‡AB ([4]; D2O PBS buffer, pH* ~7.4, EXSY): 69.3 ± 0.9 kJ/mol
- ΔSAB ([4]; D2O PBS buffer, pH* ~7.4, EXSY): 16.8 ± 4.4 J/(K·mol)
- ΔS^‡AB ([4]; D2O PBS buffer, pH* ~7.4, EXSY): -11.3 ± 3 J/(K·mol)
- ΔS^‡AB ([4]; D2O, EXSY, Eyring (Fig. 4D)): −11.3 ± 3.0 J K^−1 mol^−1
- ΔSAB ([4]; D2O, EXSY, van 't Hoff (Fig. 4C)): 16.8 ± 4.4 J K^−1 mol^−1
- IC50 ([5]; 200 nM Keap1 Kelch domain, 1 nM FITC-β-DEETGEF-OH): 31 ± 2 nM
- FP IC50 fold lower than the bis-acid 2 ([5]; vs 2): ~2 fold
- FP IC50 fold lower than the bis-tetrazole 13 ([5]; vs 13): ~2.5 fold
Structure (SMILES): COc1ccc(S(=O)(=O)N(CC(=O)O)c2ccc(N(Cc3nnn[nH]3)S(=O)(=O)c3ccc(OC)cc3)c3ccccc23)cc1 [Compound 25, N-(4-((N-((1H-tetrazol-5-yl)methyl)-4-methoxyphenyl)sulfonamido)naphthalen-1-yl)-N-((4-methoxyphenyl)sulfonyl)glycine]
- specific enzyme activity of NQO1 ([2]; 48-h incubation): increased
- fold induction at 10 µM ([2]; Mus musculus, Hepa-1c1c7, 10 μM): 2.01 ± 0.05
- protein levels of Nrf2 [3]: increased
- protein levels of heme oxygenase 1 (HO-1) [3]: increased
- kA→B ([4]; D2O PBS buffer, 280 K, EXSY): 0.1633 ± 0.0072 s⁻¹
- kA→B ([4]; D2O PBS buffer, 290 K, EXSY): 0.541 ± 0.013 s⁻¹
- kA→B ([4]; D2O PBS buffer, 300 K, EXSY): 1.432 s⁻¹ and 1.432 ± 0.033 s⁻¹
- kA→B ([4]; D2O PBS buffer, 310 K, EXSY): 3.26 ± 0.11 s⁻¹
- kA→B ([4]; D2O PBS buffer, 320 K, EXSY): 8.78 ± 0.39 s⁻¹
- Target engagement in the cellular environment (CETSA) [6]: confirmed

From article PMC12664080, “Tetrazole-containing naphthalene bis-sulfonamide Keap1-Nrf2 interaction inhibitors with unexpected binding modes” (Redox Biology, 2025)
